The record followed here is patent publication US20220380375A1, “SUBSTITUTED AROMATIC FUSED RING DERIVATIVE AND COMPOSITION COMPRISING SAME, AND USE THEREOF” (Shenzhen TargetRx, Inc., priority 2019, published 2022).

Test [1] concerns Ba/F3 FLT3-ITD^F691L cells. The test can be described thus: Cytotoxicity assay (CellTiter-Glo), Ba/F3 FLT3-ITD F691L. Type of test: cell-based. The conditions noted are these: ratio of Ba/F3 parental IC50 to Ba/F3 FLT3-ITD^F691L IC50. How it is done:
(§1) Inhibitory effects of example compounds on the activity of Ba/F3 parental generation, Ba/F3 KIF5B-RET, Ba/F3 KIF5B-RET^V804M, Ba/F3 KIF5B-RET^V804L, Ba/F3 KIF5B-RET^G810R, Ba/F3 FLT3-ITD, Ba/F3 FLT3-ITD^D835Y, Ba/F3 FLT3-ITD^F691L cells were determined.
(§2) Materials and reagents: fetal bovine serum FBS (GIBCO, Cat #10099141), CellTiter-Glo® Luminescent Cell Viability Assay kit (Promega, Cat #G7572), 96-well black-wall clear flat-bottom plate (Corning®, Cat #3603).
(§3) 1. Cells in the logarithmic growth phase were harvested and counted with a […]. Cell viability was detected by a trypan blue exclusion method, ensuring that cell viability was 90% or more; 2. Cell concentration was adjusted to about 3000 cells/well; 90 μl of cell suspension was added to each well of the 96-well plate; 3. The cells in the 96-well plate were incubated overnight under the condition of 37° C., 5% CO2, and 95% humidity.
(§4) 1. A series of compound solutions were formulated by 3.16-fold serial dilution starting from a concentration of 10 μM, resulting in 9 concentrations. 10 μL of the compound solutions were added in each well of the 96-well plate seeded with cells in triplicate for each compound concentration; 2. The cells in the 96-well plate added with compounds were further incubated under the condition of 37° C., 5% CO2, and 95% humidity for 72 hrs, and then CTG analysis was carried out.
(§5) 1. CTG reagent was thawed, and the cell plate was equilibrated at room temperature for 30 minutes; 2. An equal volume […] of CTG solution was added to each well; 3. The cell plate was shaken on an orbital shaker for 5 minutes to lyse the cells; 4. The cell plate was placed at RT for 20 minutes to stabilize the luminescence signal; 5. Luminescence value was read.
(§6) Data were Analyzed by GraphPad Prism 5.0 Software, and Fitted by Nonlinear S-Curve Regression to obtain a dose-response curve, from which IC50 values were calculated.
(§7) Cell survival rate (%)=(luminescence value of drug to be tested−luminescence value of culture medium control)/(luminescence value of cell control−luminescence value of culture medium control)×100%.

Test [2] addresses T1, Ba/F3 FLT3-ITD^F691L cells (Homo sapiens, UniProt P36888, F691L, cells depend on it, form not given).
T1 construct: Ba/F3 FLT3-ITD^F691L IC50 (nM); other: CellTiter-Glo, 72 hrs
T1 sequence (P36888 1-993 F691L): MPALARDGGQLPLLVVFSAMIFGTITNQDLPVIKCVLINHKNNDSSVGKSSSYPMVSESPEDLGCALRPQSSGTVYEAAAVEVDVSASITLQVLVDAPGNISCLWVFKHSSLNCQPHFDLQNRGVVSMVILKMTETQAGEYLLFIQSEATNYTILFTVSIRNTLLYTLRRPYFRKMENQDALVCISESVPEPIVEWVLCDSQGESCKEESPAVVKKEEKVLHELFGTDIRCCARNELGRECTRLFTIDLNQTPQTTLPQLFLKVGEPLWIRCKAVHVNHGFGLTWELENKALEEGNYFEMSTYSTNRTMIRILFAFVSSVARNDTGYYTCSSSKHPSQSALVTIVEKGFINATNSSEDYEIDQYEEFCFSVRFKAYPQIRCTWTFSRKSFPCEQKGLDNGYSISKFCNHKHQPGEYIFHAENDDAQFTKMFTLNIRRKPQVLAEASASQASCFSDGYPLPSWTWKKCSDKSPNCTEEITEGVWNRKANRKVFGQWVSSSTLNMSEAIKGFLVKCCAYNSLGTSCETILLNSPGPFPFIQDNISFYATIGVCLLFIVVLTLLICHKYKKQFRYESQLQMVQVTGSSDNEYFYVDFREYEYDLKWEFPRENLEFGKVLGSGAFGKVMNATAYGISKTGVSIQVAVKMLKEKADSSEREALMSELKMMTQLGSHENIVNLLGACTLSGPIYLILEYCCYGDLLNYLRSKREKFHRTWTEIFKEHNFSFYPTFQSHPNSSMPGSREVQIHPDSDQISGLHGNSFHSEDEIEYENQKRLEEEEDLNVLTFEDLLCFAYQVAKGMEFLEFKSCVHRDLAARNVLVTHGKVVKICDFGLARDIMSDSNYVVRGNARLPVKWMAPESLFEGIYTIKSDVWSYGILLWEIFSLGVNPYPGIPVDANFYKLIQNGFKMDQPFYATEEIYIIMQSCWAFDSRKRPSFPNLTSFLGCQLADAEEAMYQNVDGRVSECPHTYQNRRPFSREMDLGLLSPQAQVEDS
The description is as above. The format is cell-based. The conditions noted are these: CellTiter-Glo, 72 hrs; read-out: Ba/F3 FLT3-ITD^F691L IC50. How it is done:
as §1, §2, §3, §4, §5, §6, §7
For orientation: Cellular ATP, detected with luciferase, serves as a proxy for viable cell number.

SMILES strings stand for the structures.

In the case of `CC(C)n1nc(-c2ccc(CC(=O)Nc3cc(C(C)(C)C(F)(F)F)on3)cn2)c2c(N)ncnc21` [Compound T-7, 2-(6-(4-amino-1-isopropyl-1H-pyrazolo[3,4-d]pyrimidin-3-yl)pyridin-3-yl)-N-(5-(1,1,1-trifluoro-2-methylprop-2-yl)isoxazol-3-yl)acetamide], the “Ba/F3 FLT3-ITD^F691L Selectivity on parental generation” value (“Ba/F3 FLT3-ITD^F691L Selectivity” for short) in test [1] is 101.9. Besides, the GI50 in test [2] is 3.22 nM.
The like results for `CC(C)n1nc(-c2ccc(NC(=O)Nc3cc(C(F)(F)F)ccc3F)cc2)c2c(N)ncnc21` [AD80, reference compound] were, in that order, 68.8 and 11.8 nM.
On the same counts, the results for `CC(C)n1cc(-c2ccc(CC(=O)Nc3cc(C(C)(C)C(F)(F)F)on3)cc2)c2c(N)ncnc21` [Compound T-3, 2-(4-(4-amino-7-isopropyl-7H-pyrrolo[2,3-d]pyrimidin-5-yl)phenyl)-N-(5-(1,1,1-trifluoro-2-methylprop-2-yl)isoxazol-3-yl)acetamide] are 746.8 and 0.97 nM.
The like results for `CC(C)n1nc(-c2ccc(CC(=O)Nc3cc(C(C)(C)C(F)(F)F)no3)cc2)c2c(N)ncnc21` [Compound T-8, 2-(4-(4-amino-1-isopropyl-1H-pyrazolo[3,4-d]pyrimidin-3-yl)phenyl)-N-(3-(1,1,1-trifluoro-2-methylprop-2-yl)isoxazol-5-yl)acetamide] were, in that order, 585.5 and 6.28 nM.
Regarding `CC(C)n1nc(-c2ccc(CC(=O)Nc3cc(C(C)(C)C(F)(F)F)no3)cn2)c2c(N)ncnc21` [Compound T-9, 2-(6-(4-amino-1-isopropyl-1H-pyrazolo[3,4-d]pyrimidin-3-yl)pyridin-3-yl)-N-(3-(1,1,1-trifluoro-2-methylprop-2-yl)isoxazol-5-yl)acetamide], in test [1], the “Ba/F3 FLT3-ITD^F691L Selectivity” value is on record as 146.5. The GI50 in test [2] came to 28.1 nM.
For `CC(C)n1nc(-c2ccc(NC(=O)Nc3cc(C(C)(C)C(F)(F)F)on3)cc2)c2c(N)ncnc21` [Compound T-2, 1-(4-(4-amino-1-isopropyl-1H-pyrazolo[3,4-d]pyrimidin-3-yl)phenyl)-3-(5-(1,1,1-trifluoro-2-methylprop-2-yl)isoxazol-3-yl)urea], the “Ba/F3 FLT3-ITD^F691L Selectivity” value in test [1] is 115.3. Also, in test [2], the GI50 was determined as 2.93 nM.
The like results for `CC(C)n1nc(-c2ccc(CC(=O)Nc3cc(C(C)(C)C(F)(F)F)on3)c(F)c2)c2c(N)ncnc21` [Compound T-6, 2-(4-(4-amino-1-isopropyl-1H-pyrazolo[3,4-d]pyrimidin-3-yl)-2-fluorophenyl)-N-(5-(1,1,1-trifluoro-2-methylprop-2-yl)isoxazol-3-yl)acetamide] were, in that order, 334.7 and 6.26 nM.
The like results for `[2H]C([2H])([2H])C(n1nc(-c2ccc(CC(=O)Nc3cc(C(C)(C)C(F)(F)F)no3)cc2)c2c(N)ncnc21)C([2H])([2H])[2H]` [Compound T-11, 2-(4-(4-amino-1-(propan-2-yl-1,1,1,3,3,3-d6)-1H-pyrazolo[3,4-d]pyrimidin-3-yl)phenyl)-N-(3-(1,1,1-trifluoro-2-methylpropan-2-yl)isoxazol-5-yl)acetamide] were, in that order, 404.9 and 13.6 nM.
The like results for `CC(C)n1nc(-c2ccc(CC(=O)Nc3cc(C(C)(C)C(F)(F)F)on3)cc2)c2c(N)ncnc21` [Compound T-1, 2-(4-(4-amino-1-isopropyl-1H-pyrazolo[3,4-d]pyrimidin-3-yl)phenyl)-N-(5-(1,1,1-trifluoro-2-methylprop-2-yl)isoxazol-3-yl)acetamide] were, in that order, 210.4 and 7.7 nM.
For the compound `CC(C)c1cc(-c2ccc(CC(=O)Nc3cc(C(C)(C)C(F)(F)F)on3)cc2)c2c(N)ncnn12` [Compound T-5, 2-(4-(4-amino-7-isopropylpyrrolo[2,1-f][1,2,4]triazin-5-yl)phenyl)-N-(5-(1,1,1-trifluoro-2-methylprop-2-yl)isoxazol-3-yl)acetamide], the “Ba/F3 FLT3-ITD^F691L Selectivity” value in test [1] is 419.6. Besides, the GI50 in test [2] worked out at 11.4 nM.
Regarding `CC(C)c1nc(-c2ccc(CC(=O)Nc3cc(C(C)(C)C(F)(F)F)on3)cc2)c2c(N)ncnn12` [Compound T-10, 2-(4-(4-amino-7-isopropylimidazo[5,1-f][1,2,4]triazin-5-yl)phenyl)-N-(5-(1,1,1-trifluoro-2-methylprop-2-yl)isoxazol-3-yl)acetamide], the “Ba/F3 FLT3-ITD^F691L Selectivity” value in test [1] worked out at 57.3. For the same compound, in test [2], the GI50 worked out at 39.1 nM.
The like results for `CC(C)c1nc(-c2ccc(CC(=O)Nc3cc(C(C)(C)C(F)(F)F)on3)cc2)c2c(N)nccn12` [Compound T-4, 2-(4-(8-amino-3-isopropylimidazo[1,5-a]pyrazin-1-yl)phenyl)-N-(5-(1,1,1-trifluoro-2-methylprop-2-yl)isoxazol-3-yl)acetamide] were, in that order, 42.2 and 16.6 nM.
On the same counts, the results for `[2H]C([2H])([2H])C(n1cc(-c2ccc(CC(=O)Nc3cc(C(C)(C)C(F)(F)F)on3)cc2)c2c(N)ncnc21)C([2H])([2H])[2H]` [Compound T-12, 2-(4-(4-amino-7-(propen-2-yl-1,1,1,3,3,d6)-7H-pyrrolo[2,3-d]pyrimidin-5-yl)phenyl)-N-(5-(1,1,1-trifluo-2-methylpropan-2-yl)isoxazol-3-yl)acetamide] are 289.7 and 3.7 nM.
